How the values were obtained:
[1] = tested on: Diet-Induced Obesity Rat Model; experiment: Weight loss experiments in diet-induced obesity rat model; type: in vivo; conditions: for difference to control group E (weight loss effect): SPSS12.0 analysis, p<0.01, versus control group E on normal feed; for average weight variation (g) after / average weight variation (g) before: obese male rats; for average weight variation (g) before: n=10 per group
Text: Male weaned rats (each weighs 50 g) divided into 5 groups with each group 10 rats.
The rats are orally administrated L-carnitine tartrate (Group A), L-hydroxy citric acid (Group B), L-carnitine tartrate and L-hydroxy citric acid (Group C), L-carnitine tartrate and L-hydroxy citric acid and asiaticosides (Group D), respectively. For comparison, a control group E is also set herewith. The oral administration dosage is 5 times that for human (kg/day). The rats are fed with feed comprising one of the active components set forth above for continuous 30 days.
Feed preparation: the feed comprises (a) basic feed consisting of 20 wt % of barley meal, 10 wt % of dehydrated vegetables, 20 wt % of pulse flour, 1 wt % of yeast, 5 wt % of bone dust, 16 wt % of cornmeal, 16 wt % of wheat skin, 10 wt % of fish meal and 2 wt % of salt, and (b) nutritive feed selected from the group consisting of powdered milk, lard, egg and soybean sprout. 10 g of powdered milk, 10 g of lard, one egg and 250 g of soybean sprout are added per 100 g of basic feed.
In the first and second week, each rat is fed 13 g of feed per day, with an increase in the amount of the feed of 2 g every week until the sixth week ([…]). The rats are fed twice a day. After the rats are fed with the high-fat, high-nutrition feed above for 45 days, the weight of the rat fed with such feed is nearly two times that of the rat in the control group fed with normal feed (the difference may be more than 100 g).
After the establishment of the rat model, rats in different groups are orally administrated L-carnitine tartrate (Group A), L-hydroxy citric acid (Group B), L-carnitine tartrate and L-hydroxy citric acid (Group C), L-carnitine tartrate and L-hydroxy citric acid and asiaticosides (Group D). The components are blended in the feed. No additional component is added to the normal feed fed the control group.
The experiment data is analyzed by software SPSS12.0 edition, and the result are shown as below: […]

[2] = cited from earlier work
[3] = cited from earlier work; remark: listed apart in the source
[4] = after minus before, 30 days oral administration in feed, dosage 5 times that for human
[5] = fat pad around testicle and kidney, after 30 days oral administration in feed, dosage 5 times that for human
[6] = fat pad around testicle and kidney, after minus before, 30 days oral administration in feed
[7] = fat pad around testicle and kidney, before the 30 days of oral administration in feed (baseline)
[8] = after 30 days oral administration in feed, dosage 5 times that for human
[9] = before the 30 days of oral administration in feed (baseline)

Compound	difference to control group E (weight loss effect) [1]	average weight variation (g) variation [1, 4] [g]	average fat pad weight [1, 5] [g]	average fat pad weight [1, 6] [g]	average fat pad weight [1, 7] [g]	average weight variation (g) after [1, 8] [g]	average weight variation (g) before [1, 9] [g]	average percentage body fat variation (g) after [1, 5] [g]	average percentage body fat variation (g) variation [1, 6] [g]	average percentage body fat variation (g) before [1, 7] [g]	solubility in water [2]	in vivo half-life [3] [h]
C[N+](C)(C)C[C@H](O)CC(=O)[O-].O=C(O)C(O)C(O)C(=O)O [Group A, L-carnitine tartrate]	significant	-5	3.93	-2.3	6.23	98.28	103.28					
O=C(O)CC(O)(C(=O)O)C(O)C(=O)O [Group B, L-hydroxy citric acid]	significant	-5.8				97.32	103.12	3.81	-2.4	6.21		
C[N+](C)(C)C[C@H](O)CC(=O)[O-] [L-carnitine]											easy to dissolve in water	8.4
